Measured values taken from ChEMBL document CHEMBL3808272, “Discovery of (S)-4-isobutyloxazolidin-2-one as a novel leucyl-tRNA synthetase (LRS)-targeted mTORC1 inhibitor” (Bioorg Med Chem Lett, 2016).
Values belong to the molecule of their own block, whether it stands above or below them. Calls of active or inactive are those of the source. No cut-off for these calls is given here.

What was measured:
[1] = molecular target: Leucine--tRNA ligase, cytoplasmic (Homo sapiens) (UniProt Q9P2J5); assay: Inhibition of leucyl-tRNA synthetase (unknown origin) expressed in HEK293 cells assessed as inhibition of leucine-induced mTORC1-mediated S6 kinase phosphorylation pre-treated at 1 mM followed by leucine stimulation for 10 mins by immunoblotting analysis; format: cell-based
[2] = molecular target: Leucine--tRNA ligase, cytoplasmic (Homo sapiens) (UniProt Q9P2J5); assay: Inhibition of leucyl-tRNA synthetase (unknown origin) expressed in HEK293 cells assessed as inhibition of leucine-induced mTORC1-mediated S6 kinase phosphorylation pre-treated with compound followed by leucine stimulation for 10 mins by immunoblotting analysis; format: cell-based
[3] = test system: HEK293; assay: Inhibition of mTORC2 (unknown origin) expressed in HEK293 cells assessed as inhibition of leucine-induced Akt S473 phosphorylation pre-treated at 100 nM to 800 uM followed by leucine stimulation for 10 mins by immunoblotting analysis; format: cell-based; settings: Homo sapiens
[4] = test system: HEK293; assay: Effect on cellular Akt level in HEK293 cells pre-treated at 100 nM to 800 uM followed by leucine stimulation for 10 mins by immunoblotting analysis; format: cell-based; settings: human
[5] = molecular target: Leucine--tRNA ligase, cytoplasmic (Homo sapiens) (UniProt Q9P2J5); assay: Inhibition of leucyl-tRNA synthetase (unknown origin) expressed in HEK293 cells assessed as inhibition of leucine-induced mTORC1-mediated S6 kinase phosphorylation pre-treated at 800 uM followed by leucine stimulation for 10 mins by immunoblotting analysis; format: cell-based
[6] = test system: HEK293; assay: Inhibition of mTORC2 (unknown origin) expressed in HEK293 cells assessed as inhibition of leucine-induced Akt S473 phosphorylation pre-treated at 800 uM followed by leucine stimulation for 10 mins by immunoblotting analysis; format: cell-based; settings: Homo sapiens
[7] = test system: SW-620; assay: Cytotoxicity against rapamycin resistant human SW620 cells at 400 uM to 4 mM by CellTox green fluorescent dye based assay; format: functional, cell-based
[8] = test system: HEK293; assay: Effect on cellular Akt level in HEK293 cells pre-treated at 800 uM followed by leucine stimulation for 10 mins by immunoblotting analysis; format: ADME, cell-based; settings: human, hek293, 800 µM
[9] = molecular target: Leucine--tRNA ligase, cytoplasmic (Homo sapiens) (UniProt Q9P2J5); assay: Inhibition of leucyl-tRNA synthetase (unknown origin) catalytic activity assessed as aminoleucylation
[10] = test system: SW-620; assay: Cytotoxicity against rapamycin resistant human SW620 cells by CellTox green fluorescent dye based assay; format: functional, cell-based
[11] = molecular target: Leucine--tRNA ligase, cytoplasmic (Homo sapiens) (UniProt Q9P2J5); assay: Inhibition of leucyl-tRNA synthetase (unknown origin) expressed in HEK293 cells assessed as inhibition of leucine-induced mTORC1-mediated S6 kinase phosphorylation pre-treated at 100 nM followed by leucine stimulation for 10 mins by immunoblotting analysis; format: cell-based
[12] = test system: HEK293; assay: Inhibition of mTORC2 (unknown origin) expressed in HEK293 cells assessed as inhibition of leucine-induced Akt S473 phosphorylation pre-treated at 100 nM followed by leucine stimulation for 10 mins by immunoblotting analysis; format: cell-based; settings: Homo sapiens
[13] = test system: SW-620; assay: Cytotoxicity against rapamycin resistant human SW620 cells at 1 uM by CellTox green fluorescent dye based assay; format: functional, cell-based
[14] = test system: HEK293; assay: Effect on cellular Akt level in HEK293 cells pre-treated at 100 nM followed by leucine stimulation for 10 mins by immunoblotting analysis; format: ADME, cell-based; settings: human, hek293, 0.1 µM

Chain of Leucine--tRNA ligase, cytoplasmic (Homo sapiens) (Q9P2J5 whole entry, looked up): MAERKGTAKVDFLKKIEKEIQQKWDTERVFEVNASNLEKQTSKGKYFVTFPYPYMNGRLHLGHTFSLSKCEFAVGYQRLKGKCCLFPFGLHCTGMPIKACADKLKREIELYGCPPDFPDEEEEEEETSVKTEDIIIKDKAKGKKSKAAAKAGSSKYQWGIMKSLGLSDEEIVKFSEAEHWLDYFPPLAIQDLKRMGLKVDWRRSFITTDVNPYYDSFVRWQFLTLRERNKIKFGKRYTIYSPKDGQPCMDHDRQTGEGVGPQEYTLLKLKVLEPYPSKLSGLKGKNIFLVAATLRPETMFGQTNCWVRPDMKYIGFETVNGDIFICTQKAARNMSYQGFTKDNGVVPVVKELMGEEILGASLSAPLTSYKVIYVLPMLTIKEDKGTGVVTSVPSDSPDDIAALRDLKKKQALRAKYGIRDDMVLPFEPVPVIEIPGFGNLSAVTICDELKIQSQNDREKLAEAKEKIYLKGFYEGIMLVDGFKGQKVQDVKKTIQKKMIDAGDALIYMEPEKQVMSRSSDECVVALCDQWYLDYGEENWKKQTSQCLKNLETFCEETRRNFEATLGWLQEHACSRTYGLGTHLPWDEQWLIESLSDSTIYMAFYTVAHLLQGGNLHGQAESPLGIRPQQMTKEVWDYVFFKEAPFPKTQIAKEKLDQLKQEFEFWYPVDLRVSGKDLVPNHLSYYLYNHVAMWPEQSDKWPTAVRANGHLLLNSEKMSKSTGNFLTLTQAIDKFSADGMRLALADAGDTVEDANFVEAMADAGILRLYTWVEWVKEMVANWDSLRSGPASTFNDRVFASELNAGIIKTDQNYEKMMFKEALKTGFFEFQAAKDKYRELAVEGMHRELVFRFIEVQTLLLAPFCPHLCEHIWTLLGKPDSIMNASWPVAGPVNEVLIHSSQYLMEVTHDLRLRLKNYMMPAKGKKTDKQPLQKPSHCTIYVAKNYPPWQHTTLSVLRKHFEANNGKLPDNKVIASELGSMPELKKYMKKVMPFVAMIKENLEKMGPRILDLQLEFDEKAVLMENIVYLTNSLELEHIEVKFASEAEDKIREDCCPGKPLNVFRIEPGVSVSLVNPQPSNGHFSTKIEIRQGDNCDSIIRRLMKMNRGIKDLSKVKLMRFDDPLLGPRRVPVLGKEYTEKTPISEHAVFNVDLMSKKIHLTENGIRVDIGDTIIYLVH

inhibition [1]: inactive
Compound: CC(C)C[C@H](N)[C@@H](C)O

inhibition [1]: inactive
Compound: CC(C)C[C@H](N)CNS(C)(=O)=O

inhibition [1]: inactive
Compound: CC(C)C[C@H](N)CCN

inhibition [1]: Active
inhibition [2]: Dose-dependent effect
Compound: CC(C)C[C@H]1COC(=O)N1
inhibition [3]: inactive
Activity [4]: Non-toxic

inhibition [1]: Active
inhibition [5]: Active
Compound: CC(C)C[C@H](N)CO
inhibition [6]: inactive
Activity [7]: Active
Activity [8]: Non-toxic

inhibition [1]: inactive
Compound: COC[C@@H](N)CC(C)C

inhibition [1]: Active
inhibition [2]: Dose-dependent effect
Compound: CC(C)C[C@H](N)CNO
inhibition [3]: inactive
Activity [4]: Non-toxic

inhibition [1]: Active
inhibition [2]: Dose-dependent effect
inhibition [9]: inactive
Compound: CC(C)C[C@H]1CNC(=O)N1
inhibition [3]: inactive
Activity [10]: Dose-dependent effect
Activity [4]: Non-toxic

Compound: CC(C)C[C@H](N)COS(C)(=O)=O
inhibition [1]: inactive

inhibition [11]: Active
Compound: CO[C@H]1C[C@@H]2CC[C@@H](C)[C@@](O)(O2)C(=O)C(=O)N2CCCC[C@H]2C(=O)O[C@H]([C@H](C)C[C@@H]2CC[C@@H](O)[C@H](OC)C2)CC(=O)[C@H](C)/C=C(\C)[C@@H](O)[C@@H](OC)C(=O)[C@H](C)C[C@H](C)/C=C/C=C/C=C/1C [SIROLIMUS]
inhibition [12]: inactive
Activity [13]: inactive
Activity [14]: Non-toxic

inhibition [1]: inactive
Compound: CC(C)C[C@H](N)/C=N/O

inhibition [1]: inactive
Compound: CC(C)C[C@H](N)CCO

inhibition [1]: inactive
Compound: CC(=O)NC[C@@H](N)CC(C)C

inhibition [1]: inactive
Compound: CC(C)C[C@H](N)[C@H](C)O

inhibition [1]: inactive
Compound: CC(C)C[C@H](N)CN

inhibition [1]: Active
inhibition [2]: Dose-dependent effect
inhibition [9]: inactive
Compound: CC(C)Cc1ncc[nH]1
inhibition [3]: inactive
Activity [4]: Non-toxic
